Experimental data published in patent EP0572271B1, “Acyl lactylates as antimicrobial actives” (UNILEVER PLC, priority 1992, dated 1993).

How the values were obtained:
[1] = test system: Aspergillus niger & Penicillium notatum; test: Mould challenge test: mould spore suspension inoculated into preserved compositions; type: cell-based; settings: Example 2: oil-in-water emulsion, pH 5.5, material usually 1.0 wt%; for Mould challenge 1%: 1% by volume spore suspension; for Mould challenge 10%: 10% by volume spore suspension
Procedure: (§1) This test involved incubating under standard conditions test compositions which have been inoculated with a selected bacterium, yeast or a mixture of moulds. […] Accordingly, the higher the number of "challenges", the better is the preservative substance in preventing or at least delaying microbial spoilage.
(§2) The microorganisms selected for this test were: • i) Pseudomonas cepacia - a gram-negative bacterium, • ii ) Aspergillus niger & Penicillium notatum, - a mixture of moulds.
The above procedure applies to the inoculation of the bacterium. For testing with the mixed culture of moulds this procedure was varied slightly, as follows:
Two samples of each test composition (9.9ml and 9ml) were transferred to sterile flasks and 0.1ml or 1ml, (i.e. 1% or 10% by volume) of a mould spore suspension (approximately 10^8 spores per ml) was introduced into the respective samples and thoroughly mixed. The inoculated samples were incubated at 28°C for up to 28 days with 1ml samples being aseptically removed for the total viable count as outlines above using Sabourand's dextrose agar after 1, 7, and 28 days.
A composition is classed as "low risk" if mould spores are eliminated in 1 to 2 days. "Medium risk" compositions take 7 to 14 days to eliminate the spores and "high risk" compositions still have surviving mould spores after 14 days incubation.

Pseudomonas cepacia = test: Challenge test with repeated bacterial inoculation of preserved compositions; type: cell-based
Procedure: as §1, §2
For the bacterium the method of testing was as follows: • i) Introduce aseptically 99ml of test composition into a 250ml flask and add 1ml of inoculum of one of the test organisms (see above), to provide a dilution of 10^6 cells/ml in the composition. • ii) mix and incubate at 28°C for 24 hours. • iii) remove 1ml of incubated composition from the flask and add to it as diluent 9ml of an aqueous solution containing 0.1% by weight peptone and 2% by weight Tween 80, and mix thoroughly. • iv) place 1ml of diluted sample into a petri dish and add warm, molten agar (40°C) and mix to distribute culture uniformly and allow to set. • v) incubate plates for 3 days at 28°C and then count colonies and note log reduction of count (due to the presence of the preservative in the original culture composition).
The inoculation of the organisms originally introduced into each composition is then repeated at 24 hour intervals, following removal of the first total viable count sample, the plating out and counting procedure being repeated on each occasion. The test is terminated when the samples show a contamination level greater than 10^2 counts per ml on 2 consecutive days. This point is regarded as the failure point for the composition under test.
The greater the number of inoculations of contaminant organisms before this level of contamination is established in the composition, the better the preservative system.

aspergillus niger = settings: statement in words on prior art US patent 3,275,503; cited from earlier work
[2] = test system: several types of bacteria; settings: statement in words on prior art US patent 3,275,503; cited from earlier work
[3] = Example 2: oil-in-water emulsion, pH 5.5, material usually 1.0 wt%
[4] = Example 3: shampoo formulation, pH 6.0, material added 1 wt%

Molecule	Mould challenge 1% [1]	Mould challenge 10% [1]	No of inoculations to failure (Bacteria) (Pseudomonas cepacia; [3])	No of inoculations to failure (Bacteria) (Pseudomonas cepacia; [4])	efficacy to inhibit the growth of moulds, like aspergillus niger (aspergillus niger)	effectiveness against several types of bacteria [2]
CCCCCCCCCCCC(=O)O [Lauric acid]	++++	++++	1	1	–	–
CCCCCCCCCCCC(=O)OCC(O)CO (stereo not drawn) [Monolaurin]	++++	++++	1	1	–	–
CCCCCCCCCC(=O)OC(C)C(=O)OC(C)C(=O)[O-].CCCCCCCCCC(=O)OC(C)C(=O)OC(C)C(=O)[O-].[Ca+2] (stereo not drawn) [calcium capryl-2 lactylate]	–	–	–	–	leaves much to be desired	very effective
Octanoyl lactylate	+	++++	20	2	–	–
CC(C)=CCCC(C)=CCCC(C)=CCO [Farnesol]	++++	++++	1	–	–	–
CCCCCC(=O)OC(C)C(=O)O (stereo not drawn) [Hexanoyl lactylate]	+	+	>21	>21	–	–
